How the values were obtained:
[1] = test system: A549 (human lung carcinoma, ECACC 86012804); experiment: Cytotoxicity A549, sulforhodamine B; format: cell-based; details: 24 h exposure, then 96 h in fresh medium, SRB
Protocol: Cell Line A549 (human lung carcinoma, ECACC 86012804) was maintained in medium comprising DMEM (Sigma) with 10% Fetal Bovine Serum (Invitrogen), 2 mM L-Glutamine (Invitrogen) and 1% Penicillin/Streptomycin (Invitrogen), in T-75 flasks (Costar). Cells were passaged at approximately 70-90% confluence (1:8 dilution) using 0.25% Trypsin/EDTA (Invitrogen).
(§1) Both cell lines were incubated at 37° C., 5% CO2, in high humidity.
(§2) A2780 carcinoma cells were seeded (150 μL) into 96 well plates (Nunc Maxisorp) at 5000 (±10%) cells per well and incubated at 37° C., 5% CO2 in high humidity for 48 hours. A549 carcinoma cells were seeded (150 μL) into 96 well plates (Nunc Maxisorp) at 2000 (±10%) cells per well and incubated at 37° C., 5% CO2 in high humidity for 24 hours.
(§3) The compounds to be tested were solubilised by sonication in DMSO (Fisher Scientific) to provide 20 mM solutions. Compounds were serially diluted with DMSO before diluting in cell culture medium to give concentrations four-fold greater than the final concentrations required in the assay. The dilutions of compound in culture medium were added to the cell plates (50 μL) in triplicates to achieve final concentrations of 100 μM, 50 μM, 10 μM, 5 μM, 1 μM and 0.1 μM. The final DMSO concentration in each well was 0.5% (v/v). The plates were incubated for 24 hours at 37° C., 5% CO2, in high humidity
After 24 hours incubation, the cells were washed (200 μL) twice with sterile phosphate buffered Saline (Sigma) and the cell culture medium replenished (200 μL). Plates were incubated at 37° C., 5% CO2, in high humidity for 96 hours. […] Dye was re-solubilised in (200 μL) 10 mM Tris buffer (Fisher Scientific) and the absorbance of each well read at both 565 nm and 690 nm using a BMG Fluorostar microplate reader. The reading at 690 nm was subtracted from the 565 nm reading, and the IC50 values determined by plotting the corrected absorbance value Vs. the compound concentration in the wells (XLfit version 4.0, ID Business Solutions Ltd). […]

A2780 cells = experiment: Cytotoxicity A2780 (1st method), cell counting; format: cell-based, human; details: 24 h cell exposure, cells counted on day 7
Protocol: A2780 (1st Method): A2780 cells were plated on day zero, and the complexes to be tested were added on day 3. The complex was removed on day 4 (i.e., 24 h cell exposure), and after growth in fresh medium in the absence of drug, the cells were counted on day 7. The complexes were stored in the dark at 277 K as a precaution against photochemical decomposition.

[2] = test system: A2780 (human ovarian carcinoma, ECACC 93112519); experiment: Cytotoxicity A2780 (2nd method), sulforhodamine B; format: cell-based; details: 24 h exposure, then 96 h in fresh medium, SRB
Protocol: A2780 (2nd method) and A549: Cell line A2780 (human ovarian carcinoma, ECACC 93112519) was maintained in medium comprising RPMI-1640 (Sigma) with 5% Fetal Bovine Serum (Invitrogen), 2 mM L-Glutamine (Sigma) and 1% Penicillin/Streptomycin (Invitrogen), in T-75 flasks (Costar). Cells were passaged at approximately 75-90% confluence (1:8 dilution) using 0.25% Trypsin/EDTA (Invitrogen)
as §1, §2, §3
After 24 hours incubation, the cells were washed (200 μL) twice with sterile phosphate buffered Saline (Sigma) and the cell culture medium replenished (200 μL). Plates were incubated at 37° C., 5% CO2, in high humidity for 96 hours. After the incubation surviving cells were fixed by the addition of 50% (w/v) Trichloroacetic acid (50 μL) and incubated at 4° C. for 1 hour. Plates were washed three times with excess tap water and air-dried. Cells were dyed by the addition of (100 μL) 0.4% sulforhodamine B (Sigma) solution to the plates followed by five washes (200 μl) with 1% acetic acid solution to remove excess dye before air-drying. Dye was re-solubilised in (200 μL) 10 mM Tris buffer (Fisher Scientific) and the absorbance of each well read at both 565 nm and 690 nm using a BMG Fluorostar microplate reader. The reading at 690 nm was subtracted from the 565 nm reading, and the IC50 values determined by plotting the corrected absorbance value Vs. the compound concentration in the wells (XLfit version 4.0, ID Business Solutions Ltd). These are shown below in table 1

[3] = Hydrolysis kinetic studies by UV-Vis spectroscopy; format: physicochemical; set-up: key: —: no hydrolysis observed by UV-VIS; details: 298 K, methanol stock diluted with water
Protocol: Ultraviolet and Visible (UV-Vis) Spectroscopy: A Perkin-Elmer Lambda-16 UV-Vis spectrophotometer was used with 1-cm path-length quartz cuvettes (0.5 mL) and a PTP1 Peltier temperature controller. Spectra were processed using UVWinlab software for Windows' 95.
Kinetic Studies: Aliquots of stock solutions of the complexes to be tested (4-10 mM) in methanol were diluted to 500 μL with water, and the absorbance at selected wavelengths (determined by hydrolysis in an 19:1 mixture of water and methanol—see table 1 (λ)) was then recorded at 6 to 20 second intervals depending on the hydrolysis rate of each complex at 298 K. The hydrolysis rate constant kH2O for each complex was determined by computer fit of the absorbance/time data for each complex to the first-order rate equation (eq. 1), A=C0+C1e^−kt (1) where C0 and C1 are computer-fitted constants, and A is the absorbance corresponding to time t, and the results are reported in table 1 as the half life (t1/2). Cytoxicity Studies

Molecule | IC50 [1] [µM] | IC50 (A2780 cells) [µM] | IC50 [2] [µM] | t1/2 (hydrolysis), dash with footnote a [3]
F[P-](F)(F)(F)(F)F.NCCN.[Cl][Ru+].c1ccc(-c2ccccc2)cc1 [Compound C1, [(η^6-C6H5C6H5)Ru(en)Cl][PF6], reference compound] | 11 | 8 | 6.5 | –
Cc1c(C)c(C)c(C)c(C)c1C.F[P-](F)(F)(F)(F)F.NCCN.[Cl][Ru+] [Compound C2, [(η^6-C6(CH3)6)Ru(en)Cl][PF6], reference compound] | – | 9 | – | –
[(η^6-C6(CH3)6)Ru(en)(3,5-dichloropyridine)][PF6]2 [Compound 6] | – | 23 | 18 | –
[(η^6-C6(CH3)6)Ru(en)(3-methylpyridine)][PF6]2 [Compound 9] | – | 50 | 50 | —^a
[(η^6-C6(CH3)6)Ru(en)(SCN)][PF6]2 [Compound 3] | – | – | 24 | –
[(η^6-C6(CH3)6)Ru(en)(SPh)][PF6] [Compound 4] | 38 | 23 | 23 | —^a
[(η^6-C6(CH3)6)Ru(en)(p-cyanopyridine)][PF6]2 [Compound 8] | – | 6 | – | –
[(η^6-C6(CH3)6)Ru(en)(pyridine)][PF6]2 [Compound 2] | – | – | – | —^a
[(η^6-C6H5C6H5)Ru(en)N3][PF6] [Compound 1] | 8.5 | 4 | 14 | –
